Results on one compound are retold here after US12030835B2, “Substituted amide compounds useful as farnesoid X receptor modulators” (BRISTOL-MYERS SQUIBB COMPANY, priority 2019, dated 2024).

In the test the target is T1, human FXR (Homo sapiens, UniProt Q96RI1).
T1 construct: expressed in transfected cells
T1 sequence (Q96RI1 262-486 limits assumed): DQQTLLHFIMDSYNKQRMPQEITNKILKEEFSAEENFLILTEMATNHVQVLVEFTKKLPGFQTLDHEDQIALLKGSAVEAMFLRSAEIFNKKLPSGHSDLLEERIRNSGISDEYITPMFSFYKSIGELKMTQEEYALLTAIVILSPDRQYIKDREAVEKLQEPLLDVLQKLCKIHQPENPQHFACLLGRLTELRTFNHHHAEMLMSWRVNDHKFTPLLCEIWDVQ
The test is described as follows: transient human FXR/Gal4-luciferase reporter assay. Type of test: cell-based. The note with it: Gal4-hFXR (ligand binding domain) fusion transiently transfected in HEK293 Gal4-luciferase reporter cells; overnight incubation; response as percentage of 8 μM GW-4064 control. As for the experimental part: A Gal4-hFXR fusion construct reporter system was used as the primary assay to characterize compound activity. A construct including 5 copies of the Gal4 promoter response element upstream of a firefly luciferase reporter cDNA was stably expressed in HEK293 cells. This reporter cell line was maintained in Dulbecco's Modified Eagle's medium (DMEM; Gibco) supplemented with 1% penicillin-streptomycin (P/S) solution, 500 μg/ml Zeocin and 10% charcoal/dextran-treated fetal bovine serum (cs-FBS) at 37° C. in a humidified 5% CO2 atmosphere. Another plasmid was constructed in which the human cytomegalovirus promoter in the pcDNA3.1 vector directs the expression of the cDNA encoding a fusion protein comprised of the DNA binding domain from the Gal4 transcription factor fused to the ligand binding domain from human FXR.
The day prior to transfection, the reporter cells in culture are detached from the plate with trypsin and plated into a T75 flask at a sufficient density to achieve approximately 90% confluence the next morning. The transfection reagents are prepared by separately diluting 25 μg of the pcDNA3.1-Gal4-FXR plasmid into 1.87 mL of Opti-MEM (Thermo-Fisher), and 40 μL of Lipofectamine 2000 (Thermo-Fisher) into 1.87 mL of Opti-MEM, and then adding the diluted DNA solution into the diluted Lipofectamine 2000 solution and incubating at room temperature for 15-20 minutes. The mixture is further diluted with 10 ml of a solution comprised of DMEM, 10% cs-FBS, and 1% P/S immediately prior to transferring to the cells. The maintenance culture media is aspirated from the cells and the final transfection mixture is added before the cells are incubated overnight at 37° C. in a humidified 5% CO2 atmosphere. This protocol can be scaled up, and the transiently transfected cells can be cryopreserved in an assay-ready format.
For compound testing, 100 nL of the compounds (serial dilutions in DMSO) are dispensed with an Echo acoustic dispenser (Labcyte) into the wells of a Corning/Costar clear bottom 384-well white plate. The transfected cells are harvested, counted, and diluted such that 10-25,000 cells in 25 μL are plated into each well of the 384-well compound assay plate. The compound-treated cells are incubated overnight at 37° C. in a humidified 5% CO2 atmosphere. The next morning 25 μL of Steady-Glo (Promega) are added to each well of the plate, the mixture is incubated for 15 min. with shaking, and luminescence is measured on an Envision (Perkin Elmer) plate reader.

Turning to `CC(C)(O)C#Cc1cccc(N(CC23CCC(c4noc(C(C)(F)F)n4)(CC2)CC3)C(=O)C23CC(F)(C2)C3)c1` [Example 49, N-((4-(5-(1,1-difluoroethyl)-1,2,4-oxadiazol-3-yl)bicyclo[2.2.2]octan-1-yl)methyl)-3-fluoro-N-(3-(3-hydroxy-3-methylbut-1-yn-1-yl)phenyl)bicyclo[1.1.1]pentane-1-carboxamide], a half-maximal effect (EC50) was put at 39 nM.
